# Laboratory results from paper PMC10564794, “Safety and tolerability of oral vorolanib for neovascular (wet) age-related macular degeneration: a phase I, open-label study” (Eye, 2023).
# Entries after “also recorded” stand apart in the source; their conditions may differ.
# How the values were obtained:
# [1] = tested on: oxygen-induced retinopathy mice; parameters: method as in PMID 33610563; settings: cited from earlier work
# [2] = tested on: Caucasian participants with nAMD; settings: cited from earlier work
# CNV rat model = tested on: CNV rat model; parameters: method as in PMID 29201457; settings: oral administration; cited from earlier work
# participants with nAMD = assay: Phase I safety and tolerability of oral vorolanib (adverse events, DLT, MTD); type: in vivo; settings: for Dose-limiting toxicities (DLT): dose escalation
# Method: This phase I, open-label study consisting of dose escalation and dose expansion was conducted at 6 Chinese sites (NCT02452385 and CTR20150152). This study was approved by the local institutional review board at each participating site and conducted in accordance with the Declaration of Helsinki. All participants provided written informed consent.
# The schedule of procedures is shown in Table S1 in the Supplementary Material. In the dose escalation, participants in each group were assigned to receive ascending doses of vorolanib (25, 50, 75 and 100 mg daily). The dose escalated to the next level in the absence of more than two of eight patients with dose-limiting toxicity (DLT), which was defined as a drug-related safety event during the first cycle (30 days) of treatment that was severe enough to require removal of the participant from the study. The maximum tolerated dose (MTD) was defined as the maximum dose at which no more than two of eight DLTs occurred in the group.
# AEs were determined by the investigator per the Common Terminology Criteria for Adverse Events version 4.0.
smiles,measurement,setting,value
"Cc1[nH]c(/C=C2\C(=O)Nc3ccc(F)cc32)c(C)c1C(=O)N[C@H]1CCN(C(=O)N(C)C)C1 [vorolanib, Vorolanib]",Retinal neovascularization and avascular area in the retina,[1],markedly inhibited
same,Participants with ocular AEs,"[2]; 4 of 35 participants, none related to vorolanib",11.4%
same,Participants with serious AEs,"[2]; 4 serious AEs in 3 participants, none attributed to vorolanib",8.6%
same,Mean BCVA change,[2]; at 24 weeks,+3.8 letters
same,Deaths or DLTs,[2],no deaths or DLTs
same,Systemic AEs,[2]; number of events,94
same,Vorolanib-related systemic AEs,[2]; of 94 systemic AEs,32
same,Mean reduction in CST,[2]; participants that completed 24 weeks,50 μm
same,CNV lesion area and pathological neovascularization,CNV rat model,strongly repressed CNV; also recorded: reduced the CNV lesion area and pathological neovascularization
same,TRAE: Elevated ALT,"participants with nAMD; 25 mg, N = 16",3 (18.8%) number of participants (%)
same,TRAE: Elevated AST,"participants with nAMD; 25 mg, N = 16",3 (18.8%) number of participants (%)
same,TRAE: Elevated blood pressure,"participants with nAMD; 25 mg, N = 16",4 (25.0%) number of participants (%)
same,TRAE: Hair colour changes,"participants with nAMD; 25 mg, N = 16",0 number of participants (%)
same,TRAE: Leucopenia,"participants with nAMD; 25 mg, N = 16",1 (6.3%) number of participants (%)
same,TRAE: Neutropenia,"participants with nAMD; 25 mg, N = 16",1 (6.3%) number of participants (%)
same,TRAE: QT interval prolongation,"participants with nAMD; 25 mg, N = 16",2 (12.5%) number of participants (%)
same,TRAE: Thrombocytopenia,"participants with nAMD; 25 mg, N = 16",2 (12.5%) number of participants (%)
same,TRAE: Elevated ALT,"participants with nAMD; 50 mg, N = 16",9 (56.3%) number of participants (%)
same,TRAE: Elevated AST,"participants with nAMD; 50 mg, N = 16",8 (50.0%) number of participants (%)
same,TRAE: Elevated blood pressure,"participants with nAMD; 50 mg, N = 16",6 (37.5%) number of participants (%)
same,TRAE: Hair colour changes,"participants with nAMD; 50 mg, N = 16",4 (25.0%) number of participants (%)
same,TRAE: Leucopenia,"participants with nAMD; 50 mg, N = 16",3 (18.8%) number of participants (%)
same,TRAE: Neutropenia,"participants with nAMD; 50 mg, N = 16",3 (18.8%) number of participants (%)
same,TRAE: QT interval prolongation,"participants with nAMD; 50 mg, N = 16",4 (25.0%) number of participants (%)
same,TRAE: Thrombocytopenia,"participants with nAMD; 50 mg, N = 16",1 (6.3%) number of participants (%)
same,Dose-limiting toxicities (DLT),participants with nAMD; 75 mg cohort,one
same,TRAE: Elevated ALT,"participants with nAMD; 75 mg, N = 8",5 (62.5%) number of participants (%)
same,TRAE: Elevated AST,"participants with nAMD; 75 mg, N = 8",4 (50.0%) number of participants (%)
same,TRAE: Elevated blood pressure,"participants with nAMD; 75 mg, N = 8",3 (37.5%) number of participants (%)
same,TRAE: Hair colour changes,"participants with nAMD; 75 mg, N = 8",2 (25.0%) number of participants (%)
same,TRAE: Leucopenia,"participants with nAMD; 75 mg, N = 8",3 (37.5%) number of participants (%)
same,TRAE: Neutropenia,"participants with nAMD; 75 mg, N = 8",2 (25.0%) number of participants (%)
same,TRAE: QT interval prolongation,"participants with nAMD; 75 mg, N = 8",1 (12.5%) number of participants (%)
same,TRAE: Thrombocytopenia,"participants with nAMD; 75 mg, N = 8",3 (37.5%) number of participants (%)
same,Dose-limiting toxicities (DLT),participants with nAMD; 100 mg cohort,one
same,TRAE: Elevated blood pressure,"participants with nAMD; 100 mg, N = 1",0 number of participants (%)
same,TRAE: Hair colour changes,"participants with nAMD; 100 mg, N = 1",0 number of participants (%)
same,TRAE: Leucopenia,"participants with nAMD; 100 mg, N = 1",0 number of participants (%)
same,TRAE: Neutropenia,"participants with nAMD; 100 mg, N = 1",0 number of participants (%)
same,TRAE: QT interval prolongation,"participants with nAMD; 100 mg, N = 1",0 number of participants (%)
same,TRAE: Thrombocytopenia,"participants with nAMD; 100 mg, N = 1",0 number of participants (%)
same,Drug-related AEs leading to drug discontinuation,participants with nAMD; 6 of 41 participants,14.6%
same,Fatal TRAEs,participants with nAMD; all cohorts,No fatal TRAEs
same,Ocular TRAEs,participants with nAMD; all cohorts,no ocular TRAEs occurred
same,Participants with at least one AE,"participants with nAMD; all cohorts, N = 41",39 (95.1%) participants (%)
same,Participants with grade 3 or higher TRAEs,"participants with nAMD; all cohorts, N = 41",12 (29.3%) participants (%)
same,Participants with treatment-related adverse events (TRAEs),"participants with nAMD; all cohorts, N = 41",33 (80.5%) participants (%)
same,Elevated alanine aminotransferase (most common nonocular TRAE),participants with nAMD; all participants,41.5%
same,"Dose-limiting toxicities (DLTs), total",participants with nAMD; dose escalation 25–100 mg daily,two
same,Maximum tolerated dose,participants with nAMD; oral 25–100 mg daily,not reached
